{"source": "patent US11897961B2", "about": "“Anti-CD123 antibodies and conjugates and derivatives thereof” (IMMUNOGEN, INC., priority 2015, dated 2024)", "key": {"EOL-1 cells": {"system": "EOL-1 cells", "assay": "EOL-1 subcutaneous model in athymic nude mice, third study"}, "[1]": {"system": "normal blood cells / normal progenitor cells versus AML progenitors", "assay": "Cytotoxicity on normal blood / normal progenitor cells versus AML progenitors", "assay_type": "cell-based, human", "settings": "FIG. 11E and FIG. 19"}, "TF-1 cells [2]": {"system": "TF-1 cells", "assay": "Proliferation of TF-1 cells grown in the presence of GM-CSF (IL-3-dependence control)", "assay_type": "cell-based, human", "settings": "GM-CSF 2 ng/mL", "protocol": "(§1) The ability of anti-CD123 antibodies to inhibit IL3-mediated signaling and proliferation was examined in vitro using the erythroleukemia cell line TF-1 that can proliferate only in the presence of one of the following growth factors, either IL-3 or GM-CSF. TF-1 cells were cultured in the complete RPMI medium (RPMI-1640, 10% fetal bovine serum and 50 μg/mL gentamicin sulfate; all reagents were from Invitrogen) supplemented with GM-CSF (2 ng/mL). Prior to setting up the proliferation assays, the cells were washed and then starved of the growth factors overnight. […] TF-1 cells were plated at 6,000 cells per well in the complete RPMI medium in either the presence or absence of 10 μg/mL of an anti-CD123 antibody. A growth factor, either IL-3 (1 ng/mL) or GM-CSF (2 ng/mL), was added to the cells to initiate cell proliferation. […] The relative numbers of viable cells in each well were determined by the colorimetric WST-8 assay (Dojindo Molecular Technologies, Inc., Rockville, MD, US). WST-8 is reduced by dehydrogenases in viable cells to an orange formazan product that is soluble in tissue culture medium. The amount of formazan produced is directly proportional to the number of viable cells. […] Then the absorbance was measured on a plate-reader spectrophotometer in the dual wavelength mode 450 nm/650 nm, and the absorbance at the 650 nm (non-specific light scattering by cells) was subtracted from that at the 450 nm."}, "TF-1 cells [3]": {"system": "TF-1 cells", "assay": "Inhibition of IL-3-dependent proliferation of TF-1 cells (WST-8)", "assay_type": "cell-based, human", "settings": "dose-response", "protocol": "as §1, with “US).” for “US). WST-8 is reduced by dehydrogenases in viable cells to an orange formazan product that is soluble in tissue culture medium. The amount of formazan produced is directly proportional to the number of viable cells.”\nTF-1 cells were plated at 6,000 cells per well in 100 μL culture medium. […] Relative cell number in each well was determined by WST-8 assay as described above. […]"}}, "data": [{"molecule": "Nc1ncn([C@@H]2O[C@H](CO)[C@@H](O)[C@H]2O)c(=O)n1", "note": "[Azacitidine]", "values": [{"measurement": "% T/C (Day 16)", "setting": "EOL-1 cells; 3.75 mg/kg, q3d × 5, i.p.", "result": 59, "unit": "%"}, {"measurement": "CR", "setting": "EOL-1 cells; 3.75 mg/kg, q3d × 5, i.p.", "result": "0/8"}, {"measurement": "PR", "setting": "EOL-1 cells; 3.75 mg/kg, q3d × 5, i.p.", "result": "0/8"}, {"measurement": "Result", "setting": "EOL-1 cells; 3.75 mg/kg, q3d × 5, i.p.", "result": "Inactive"}]}, {"molecule": "Nc1ccn([C@@H]2O[C@H](CO)[C@@H](O)[C@@H]2O)c(=O)n1", "note": "[Cytarabine]", "values": [{"measurement": "% T/C (Day 16)", "setting": "EOL-1 cells; 75 mg/kg, qd × 5, i.p.", "result": 84, "unit": "%"}, {"measurement": "CR", "setting": "EOL-1 cells; 75 mg/kg, qd × 5, i.p.", "result": "0/8"}, {"measurement": "PR", "setting": "EOL-1 cells; 75 mg/kg, qd × 5, i.p.", "result": "0/8"}, {"measurement": "Result", "setting": "EOL-1 cells; 75 mg/kg, qd × 5, i.p.", "result": "Inactive"}]}, {"molecule": "gemtuzumab ozogamicin [Mylotarg]", "values": [{"measurement": "fold difference in cytotoxicity between normal blood/progenitor cells and AML progenitor cells", "setting": "[1]", "result": 10, "unit": "fold"}]}, {"molecule": "muCD123-3: murine anti-CD123 monoclonal antibody, HCVR SEQ ID NO: 26, LCVR SEQ ID NO: 27 (antibody, V domains shown) VH: EFQLQQSGPEVVKPGASVKMSCKASGYTFTSYVMHWMKQKPGQGLEWIGYIKPYKDGTKYNEKFKGKATLISDKPSSTAYMELSSLTSEDSAVYYCAREGENGYYDAMDYWGQGTSVTVSS VL: DIQMTQSPSSLSASLGGKVTITCKASQDINKYIAWYQHKPGKGPRLLIHYTSTLQPGIPSRFSGSGSGRDYSFSISNLEPEDIATYYCLQYDNLLYTFGGGTKLELKR", "values": [{"measurement": "effect on TF-1 cell proliferation in the presence of GM-CSF", "setting": "TF-1 cells [2]", "result": "no inhibitory effect"}]}, {"molecule": "muCD123-6: murine anti-CD123 monoclonal antibody, HCVR SEQ ID NO: 28, LCVR SEQ ID NO: 29 (antibody, V domains shown) VH: EFQLQQSGPELVKPGASVKMSCKASGYIFTSSIMHWMKQKPGQGLEWIGYIKPYNDGTKYNEKFKGKATLTSDKSSSTANMELNSLTSEDSAVYYCAREGGNDYYDTMDYWGQGTSVTVSS VL: DIKMTQSPSSMYASLGERVTITCKASQDINSYLSWFQQKPGKSPKTLIYRVNRLVDGVPSRFSGSGSGQDYSLTISSLEYEDMGIYYCLQYDAFPYTFGGGTKLEIKR", "values": [{"measurement": "effect on TF-1 cell proliferation in the presence of GM-CSF", "setting": "TF-1 cells [2]", "result": "no inhibitory effect"}]}, {"molecule": "chCD123-6: chimeric antibody: mouse HCVR/LCVR SEQ ID NOs: 28 and 29 with human IgG1 and Kappa constant sequences (antibody, V domains shown, human IgG1 and kappa constant regions) VH: EFQLQQSGPELVKPGASVKMSCKASGYIFTSSIMHWMKQKPGQGLEWIGYIKPYNDGTKYNEKFKGKATLTSDKSSSTANMELNSLTSEDSAVYYCAREGGNDYYDTMDYWGQGTSVTVSS VL: DIKMTQSPSSMYASLGERVTITCKASQDINSYLSWFQQKPGKSPKTLIYRVNRLVDGVPSRFSGSGSGQDYSLTISSLEYEDMGIYYCLQYDAFPYTFGGGTKLEIKR", "values": [{"measurement": "effect on TF-1 cell proliferation in the presence of GM-CSF", "setting": "TF-1 cells [2]", "result": "no inhibitory effect"}, {"measurement": "inhibition of IL-3-dependent proliferation of TF-1 cells (in words)", "setting": "TF-1 cells [3]", "result": "completely inhibited at 1 nM"}]}, {"molecule": "muCD123-14: murine anti-CD123 monoclonal antibody, HCVR SEQ ID NO: 30, LCVR SEQ ID NO: 31 (antibody, V domains shown) VH: EVKLVESGGDLVKPGGSLKLSCAASGFTFSNYAMSWVRQNSEKRLEWVATINSGGSFTYYPDSVKGRFTISRDNAKDSLYLQMSSLNSEDTAMYYCARQSEAYYGYDKRTWFAYWGQGTLVTVSS VL: DILLTQSPAILSVSPGTRVSFSCRASQSVGTSIHWYQQRPNGFPRLLIKYASESISGIPSRFSGSGSGTDFTLNINSVESEDIADYYCQQSKSWPLTFGAGTKLELKR", "values": [{"measurement": "effect on TF-1 cell proliferation in the presence of GM-CSF", "setting": "TF-1 cells [2]", "result": "no inhibitory effect"}]}]}
